From PMC6547681 (Nature Communications, 2019)
“And” between values parts separate entries of the source, which are not always exact repeats. Identical values can stand only once. Like-named read-outs stand apart in the source and are kept apart here.

How the values were obtained:
BCL-2 WT = assay: Steady-state competition SPR against immobilised BIMBH3 peptide, BCL-2 WT; assay type: binding, human; conditions: for Ki: BCL-2 WT
Procedure: (§1) SPR experiments were performed as previously described. […] The lowest concentrations used in direct binding experiments were 1 nM for BIAcore 4000 and 0.1 nM for BIAcore S200 instruments, concentrations below these were below the sensitivity thresholds for the instruments. […] Direct binding experiments were fitted to a 1:1 binding site kinetic model, fitting on and off rates, in BIAevaluation software. For competition experiments steady-state responses were determined in BIAevaluation software according to the software defaults in affinity evaluation mode averaging responses for 5 sec. […] All affinity measurements were performed in at least two independent experiments using independent protein preparations.

[1] = target: BCL-2 G101V/E152A double mutant (Homo sapiens, UniProt P10415, E152A/G101V); assay: Steady-state competition SPR against immobilised BIMBH3 peptide, BCL-2 G101V/E152A double mutant; assay type: binding
Procedure: as §1

[2] = S55746 concentration 60, BCL-2 concentration 150 nM, independent experiment 1
[3] = S55746 concentration 60, BCL-2 concentration 200 nM, independent experiment 1

Sequence of BCL-2 G101V/E152A double mutant (P10415 with tags, fused parts or gaps G101V/E152A): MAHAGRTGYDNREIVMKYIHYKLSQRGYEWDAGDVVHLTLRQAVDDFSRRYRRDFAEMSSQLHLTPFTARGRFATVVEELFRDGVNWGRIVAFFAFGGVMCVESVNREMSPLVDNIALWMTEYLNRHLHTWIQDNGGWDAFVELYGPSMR

O=C(c1cc(-c2cc3c(cc2C(=O)N2Cc4ccccc4C[C@H]2CN2CCOCC2)OCO3)n2c1CCCC2)N(c1ccccc1)c1ccc(O)cc1 [S55746]
Raw data values in Figure 3f (SPR response) (BCL-2 WT; S55746 concentration 60, BCL-2 concentration 100 nM, independent experiment 3): 70.2062
Raw data values in Figure 3f (SPR response) (BCL-2 WT; [2]): 94.4799
Raw data values in Figure 3f (SPR response) (BCL-2 WT; S55746 concentration 60, BCL-2 concentration 150 nM, independent experiment 3): 81.267
Raw data values in Figure 3f (SPR response) (BCL-2 WT; [3]): 96.2757
Raw data values in Figure 3f (SPR response) (BCL-2 WT; S55746 concentration 60, BCL-2 concentration 200 nM, independent experiment 3): 87.9958
Raw data values in Figure 3f (SPR response) (BCL-2 WT; S55746 concentration 80, BCL-2 concentration 1 nM, independent experiment 2): 1.2215
Raw data values in Figure 3f (SPR response) (BCL-2 WT; S55746 concentration 80, BCL-2 concentration 3 nM, independent experiment 2): 2.493
Raw data values in Figure 3f (SPR response) (BCL-2 WT; S55746 concentration 80, BCL-2 concentration 4 nM, independent experiment 2): 3.639
Raw data values in Figure 3f (SPR response) (BCL-2 WT; S55746 concentration 80, BCL-2 concentration 6 nM, independent experiment 2): 4.673
Raw data values in Figure 3f (SPR response) (BCL-2 WT; S55746 concentration 80, BCL-2 concentration 8 nM, independent experiment 2): 5.6951
Raw data values in Figure 3f (SPR response) (BCL-2 WT; S55746 concentration 80, BCL-2 concentration 9 nM, independent experiment 2): 6.782
Raw data values in Figure 3f (SPR response) (BCL-2 WT; S55746 concentration 80, BCL-2 concentration 11 nM, independent experiment 2): 7.791
Raw data values in Figure 3f (SPR response) (BCL-2 WT; S55746 concentration 80, BCL-2 concentration 12 nM, independent experiment 2): 8.945
Raw data values in Figure 3f (SPR response) (BCL-2 WT; S55746 concentration 80, BCL-2 concentration 16 nM, independent experiment 2): 11.2715
Raw data values in Figure 3f (SPR response) (BCL-2 WT; S55746 concentration 80, BCL-2 concentration 24 nM, independent experiment 2): 17.5573
Raw data values in Figure 3f (SPR response) (BCL-2 WT; S55746 concentration 80, BCL-2 concentration 40 nM, independent experiment 2): 30.3087
Ki (BCL-2 WT; read-out: S55746 KI (mean), competition vs BIMBH3 SPR surface, mean ± SD, n ≥ 2): 360 pM and 356 pM
Ki (BCL-2 WT; read-out: S55746 KI, single independent experiments, independent experiments 1-3): 358 pM and 372 pM and 338 pM
Raw data values in Figure 3h (SPR response) ([1]; S55746 concentration 20, BCL-2 concentration 10 nM, independent experiment 1): 30.4614
Raw data values in Figure 3h (SPR response) ([1]; S55746 concentration 20, BCL-2 concentration 10 nM, independent experiment 2): 6.021
Raw data values in Figure 3h (SPR response) ([1]; S55746 concentration 20, BCL-2 concentration 20 nM, independent experiment 1): 65.5037
Raw data values in Figure 3h (SPR response) ([1]; S55746 concentration 20, BCL-2 concentration 20 nM, independent experiment 2): 18.8646
Raw data values in Figure 3h (SPR response) ([1]; S55746 concentration 20, BCL-2 concentration 30 nM, independent experiment 1): 76.9824
Raw data values in Figure 3h (SPR response) ([1]; S55746 concentration 20, BCL-2 concentration 30 nM, independent experiment 2): 27.9038
Raw data values in Figure 3h (SPR response) ([1]; S55746 concentration 20, BCL-2 concentration 40 nM, independent experiment 1): 81.6304
Raw data values in Figure 3h (SPR response) ([1]; S55746 concentration 20, BCL-2 concentration 40 nM, independent experiment 2): 34.3045
Raw data values in Figure 3h (SPR response) ([1]; S55746 concentration 20, BCL-2 concentration 50 nM, independent experiment 1): 84.581
Raw data values in Figure 3h (SPR response) ([1]; S55746 concentration 20, BCL-2 concentration 50 nM, independent experiment 2): 38.4913
Raw data values in Figure 3h (SPR response) ([1]; S55746 concentration 20, BCL-2 concentration 60 nM, independent experiment 1): 86.8988
Raw data values in Figure 3h (SPR response) ([1]; S55746 concentration 20, BCL-2 concentration 60 nM, independent experiment 2): 42.4602
Raw data values in Figure 3h (SPR response) ([1]; S55746 concentration 20, BCL-2 concentration 70 nM, independent experiment 1): 87.9145
Raw data values in Figure 3h (SPR response) ([1]; S55746 concentration 20, BCL-2 concentration 70 nM, independent experiment 2): 45.435
Raw data values in Figure 3h (SPR response) ([1]; S55746 concentration 20, BCL-2 concentration 80 nM, independent experiment 1): 88.9424
Raw data values in Figure 3h (SPR response) ([1]; S55746 concentration 20, BCL-2 concentration 80 nM, independent experiment 2): 47.8619
Raw data values in Figure 3h (SPR response) ([1]; S55746 concentration 20, BCL-2 concentration 100 nM, independent experiment 1): 90.7371
Raw data values in Figure 3h (SPR response) ([1]; S55746 concentration 20, BCL-2 concentration 100 nM, independent experiment 2): 52.9424
Raw data values in Figure 3h (SPR response) ([1]; S55746 concentration 20, BCL-2 concentration 150 nM, independent experiment 1): 92.2147
Raw data values in Figure 3h (SPR response) ([1]; S55746 concentration 20, BCL-2 concentration 150 nM, independent experiment 2): 60.437
Raw data values in Figure 3h (SPR response) ([1]; S55746 concentration 20, BCL-2 concentration 200 nM, independent experiment 1): 94.1481
Raw data values in Figure 3h (SPR response) ([1]; S55746 concentration 20, BCL-2 concentration 200 nM, independent experiment 2): 65.8724
Raw data values in Figure 3h (SPR response) ([1]; S55746 concentration 40, BCL-2 concentration 10 nM, independent experiment 1): 10.773
Raw data values in Figure 3h (SPR response) ([1]; S55746 concentration 40, BCL-2 concentration 10 nM, independent experiment 2): 1.948
Raw data values in Figure 3h (SPR response) ([1]; S55746 concentration 40, BCL-2 concentration 20 nM, independent experiment 1): 28.9257
Raw data values in Figure 3h (SPR response) ([1]; S55746 concentration 40, BCL-2 concentration 20 nM, independent experiment 2): 5.643
Raw data values in Figure 3h (SPR response) ([1]; S55746 concentration 40, BCL-2 concentration 30 nM, independent experiment 1): 52.4298
Raw data values in Figure 3h (SPR response) ([1]; S55746 concentration 40, BCL-2 concentration 30 nM, independent experiment 2): 13.0173
Raw data values in Figure 3h (SPR response) ([1]; S55746 concentration 40, BCL-2 concentration 40 nM, independent experiment 1): 71.0654
Raw data values in Figure 3h (SPR response) ([1]; S55746 concentration 40, BCL-2 concentration 40 nM, independent experiment 2): 23.2512
Raw data values in Figure 3h (SPR response) ([1]; S55746 concentration 40, BCL-2 concentration 50 nM, independent experiment 1): 78.1857
Raw data values in Figure 3h (SPR response) ([1]; S55746 concentration 40, BCL-2 concentration 50 nM, independent experiment 2): 30.4785
Raw data values in Figure 3h (SPR response) ([1]; S55746 concentration 40, BCL-2 concentration 60 nM, independent experiment 1): 82.5478
Raw data values in Figure 3h (SPR response) ([1]; S55746 concentration 40, BCL-2 concentration 60 nM, independent experiment 2): 36.3344
Raw data values in Figure 3h (SPR response) ([1]; S55746 concentration 40, BCL-2 concentration 70 nM, independent experiment 1): 84.8279
Raw data values in Figure 3h (SPR response) ([1]; S55746 concentration 40, BCL-2 concentration 70 nM, independent experiment 2): 40.4837
Raw data values in Figure 3h (SPR response) ([1]; S55746 concentration 40, BCL-2 concentration 80 nM, independent experiment 1): 86.613
Raw data values in Figure 3h (SPR response) ([1]; S55746 concentration 40, BCL-2 concentration 80 nM, independent experiment 2): 44.3565
Raw data values in Figure 3h (SPR response) ([1]; S55746 concentration 40, BCL-2 concentration 100 nM, independent experiment 1): 88.6534
Raw data values in Figure 3h (SPR response) ([1]; S55746 concentration 40, BCL-2 concentration 100 nM, independent experiment 2): 49.9278
Raw data values in Figure 3h (SPR response) ([1]; S55746 concentration 40, BCL-2 concentration 150 nM, independent experiment 1): 91.2516
Raw data values in Figure 3h (SPR response) ([1]; S55746 concentration 40, BCL-2 concentration 150 nM, independent experiment 2): 58.1685
Raw data values in Figure 3h (SPR response) ([1]; S55746 concentration 40, BCL-2 concentration 200 nM, independent experiment 1): 92.8828
Raw data values in Figure 3h (SPR response) ([1]; S55746 concentration 40, BCL-2 concentration 200 nM, independent experiment 2): 64.0843
Raw data values in Figure 3h (SPR response) ([1]; S55746 concentration 60, BCL-2 concentration 10 nM, independent experiment 1): 8.7572
Raw data values in Figure 3h (SPR response) ([1]; S55746 concentration 60, BCL-2 concentration 10 nM, independent experiment 2): 1.402
Raw data values in Figure 3h (SPR response) ([1]; S55746 concentration 60, BCL-2 concentration 20 nM, independent experiment 1): 17.8604
Raw data values in Figure 3h (SPR response) ([1]; S55746 concentration 60, BCL-2 concentration 20 nM, independent experiment 2): 2.802
Raw data values in Figure 3h (SPR response) ([1]; S55746 concentration 60, BCL-2 concentration 30 nM, independent experiment 1): 29.7852
Raw data values in Figure 3h (SPR response) ([1]; S55746 concentration 60, BCL-2 concentration 30 nM, independent experiment 2): 5.592
Raw data values in Figure 3h (SPR response) ([1]; S55746 concentration 60, BCL-2 concentration 40 nM, independent experiment 1): 46.113
Raw data values in Figure 3h (SPR response) ([1]; S55746 concentration 60, BCL-2 concentration 40 nM, independent experiment 2): 9.958
Raw data values in Figure 3h (SPR response) ([1]; S55746 concentration 60, BCL-2 concentration 50 nM, independent experiment 1): 65.5161
Raw data values in Figure 3h (SPR response) ([1]; S55746 concentration 60, BCL-2 concentration 50 nM, independent experiment 2): 18.5156
Raw data values in Figure 3h (SPR response) ([1]; S55746 concentration 60, BCL-2 concentration 60 nM, independent experiment 1): 78.402
Raw data values in Figure 3h (SPR response) ([1]; S55746 concentration 60, BCL-2 concentration 60 nM, independent experiment 2): 29.1548
Raw data values in Figure 3h (SPR response) ([1]; S55746 concentration 60, BCL-2 concentration 70 nM, independent experiment 1): 82.48
Raw data values in Figure 3h (SPR response) ([1]; S55746 concentration 60, BCL-2 concentration 70 nM, independent experiment 2): 34.7085
Raw data values in Figure 3h (SPR response) ([1]; S55746 concentration 60, BCL-2 concentration 80 nM, independent experiment 1): 84.2763
Raw data values in Figure 3h (SPR response) ([1]; S55746 concentration 60, BCL-2 concentration 80 nM, independent experiment 2): 38.0757
Raw data values in Figure 3h (SPR response) ([1]; S55746 concentration 60, BCL-2 concentration 100 nM, independent experiment 1): 87.9314
Raw data values in Figure 3h (SPR response) ([1]; S55746 concentration 60, BCL-2 concentration 100 nM, independent experiment 2): 45.7651
Raw data values in Figure 3h (SPR response) [1, 2]: 91.7815
Raw data values in Figure 3h (SPR response) ([1]; S55746 concentration 60, BCL-2 concentration 150 nM, independent experiment 2): 56.7196
Raw data values in Figure 3h (SPR response) [1, 3]: 93.0262
Raw data values in Figure 3h (SPR response) ([1]; S55746 concentration 60, BCL-2 concentration 200 nM, independent experiment 2): 63.1726
